Source: US12318393B2, “Modulators of orphan nuclear receptors for NASH and other metabolic disorders” (Emory University, priority 2018, dated 2025)

Key:
[1] = system: high-fat-fed C57BL/6 mice; assay: High-fat-diet C57BL/6 mice, Compound 1 7.5 mg/kg with antagomiR-control or antagomiR-122; type: in vivo
Method: C57BL/6 mice were fed a 50% high fat diet (HFD) for four weeks. The control cohort received three hydrodynamic tail vein injections of a 5 μg antagomiR-control and six i.p injections of saline over three weeks. A second cohort was hydrodynamic tail vein injected with 5 μg antagomiR-122 (the reverse complement that inhibits activity of miR-122) three times and i.p injections of saline six times over three weeks. A third cohort was injected i.p. with Compound 1 (7.5 mg/kg) twice a week plus antagomiR-control once a week over the course of 3 weeks. The final cohort was injected i.p. with Compound 1 (7.5 mg/kg) twice a week plus antagomiR-122 injections once a week over the course of 3 weeks.
High Fat diet fed mice. C57BL/6 male mice were fed for 8 weeks a 50% high fat diet (Envigo, DIETTD150235). All mice were kept in a pathogen-free facility, under a 12 h light/dark cycle. Research on mice was approved by the Hebrew University Institutional Animal Care and Ethics Committee.
Compound 1 and AntagomiR injections to mice. C57BL/6 male mice, 7-8 weeks old, or Sgp130FC, 9-month-old male mice, were injected i.p. with 7.5 mg/kg Compound 1 dissolved in saline and 3% DMSO. Saline was injected as control. Mice were hydrodynamic tail vain injected with antagomiR-122 or antagomiR-control (negative control) (5 μg/mouse in 1.5 ml saline). Mice were sacrificed according to the legend of the figure describing the experimental results and the livers, white adipose and skeletal muscle tissues were frozen in liquid nitrogen or in OCT embedded frozen blocks, for further RNA and histologic analysis. AntagomiRs were obtained from Sigma Aldrich, see Table 3.
Triglycerides and β-hydroxybutyrate quantification. To determine the liver and muscle lipid content, muscle and liver tissues (40-80 mg) were homogenized in 0.5 ml of chloroform: Tris solution (v/v, 1:1), the homogenate was transferred to 1 ml of chloroform: methanol solution (v/v, 2:1) centrifuged at 3000 rpm for 10 min. The organic phase was mixed with 5% Triton X100 in chloroform, dried and re-dissolved in water. After lipid extraction, TG concentration in samples was measured with Triglyceride Quantification Kit (BioVision), according to the manufactures instructions. β-hydroxybutyrate was determined utilizing commercial colorimetric kits (BioVision) directly from plasma samples.
In an effort to determine whether the mechanism of action of miR-122 and Compound 1 are aligned at the same pathway, an experiment was designed in which both molecules, together and each separately, were administered. In this study, mice were fed with a 50% HFD and therapy was initiated 4 weeks after the animals were already on a diet, to establish NASH prior to treatment. Therapies (antagomiRs given once a week, due to a prolonged half time, and RS twice weekly, due to a plasma t/2 of 2.7 hrs) were initiated after 4 weeks and given for 3 weeks. The mice were weighed from week 3 and therapies initiated a week later. […] The liver was further analyzed to assess lipotoxicity. […] A surrogate marker for energy expenditure, β-hydroxybutyrate, was also measured. A reduction in energy expenditure is associated with reduced miR-122, and energy expenditure increased upon treating with Compound 1.
Male C57BL/6J mice, 7 to 8 weeks old, were housed randomly in standard cages and were fed a HFD, or atherogenic diet (consisting 1% Chol and 0.5% cholic acid, see also Table 3). All mice had free access to water during the experimental period. During the feeding period body weight was monitored every 3 days. In the HFD experiment, after 4 or 6 weeks, the resultant obese mice were treated with antagomiR-122 ([…] once a week for 3 weeks), or i.p. injected with Compound 1 (RORα agonist, 7.5 mg/kg twice a week for 3 weeks; or 15 mg/kg 3 times a week for 3 weeks). The obese control (HFD) group was administered only saline with DMSO and antagomiR-control. […]

miR-122 = assay: Expression of RORα-regulated microRNA in Huh-7 cells (qRT-PCR); type: cell-based, human; details: 1 μM, 24 hours
Method: Secreted microRNA levels in the medium of Huh-7 cells were analyzed by qRT-PCR and were normalized to spiked C. elegans miR-39. miR-18 and miR-93 served as controls for secreted microRNA and were not affected following Compound 1 addition.
RNA extraction and quantitative Real-Time PCR analysis. Total RNA, including small RNAs, were isolated from 200 μL of plasma or culture media samples using the miRNeasy Mini kit (Qiagen, Valencia, CA, USA) with 2 minor modifications. First, 200 μl of plasma or culture media were lysed with 1 ml of Qiazol solution. Second, a 50 pmol/l of synthesized single strand Caenorhabditis elegans miRNA (cel-miR-39) was added as the spike-in control to monitor extraction efficiency. The remainder of the RNA extraction was performed according to the manufacturer's instructions. miRNAs were eluted with 30 μl of RNase-free water. […] The fold expression and statistical significance were calculated using the 2-ΔΔ Ct method. […]

With `O=C1Nc2cc(C(=O)N3CCC(Cc4ccccc4)CC3)ccc2Nc2ccccc21` [Compound 1] the “body weight, co-administration with antagomir-122” value ([1]; 7.5 mg/kg i.p. twice a week plus antagomiR-122 once a week, 3 weeks) was “did not decrease”, the “body weight at the end of the experiment compared to the control group” value ([1]; 7.5 mg/kg i.p. twice a week plus antagomiR-control, 3 weeks) was “statistically lower” and the “secretion of miR-122 (plasma)” value ([1]; 7.5 mg/kg i.p. twice a week, 3 weeks) was “enhanced”. The “TG content in the muscle” value ([1]; 50% HFD, treatment for 3 weeks) was “decreased”, the “energy expenditure (surrogate marker β-hydroxybutyrate)” value ([1]; 50% HFD, treatment for 3 weeks) was “increased” and the “hepatic lipid droplets and TG content” value ([1]; 50% HFD, treatment for 3 weeks) was “reduced”. For the same compound, the “secreted miR-18 and miR-93 levels in medium (control microRNAs)” value (miR-122) was “not affected” and the “secretion of miR-122 (relative microRNA levels in Huh7 medium)” value (miR-122; vs DMSO) was “specifically increases”.
